How the values were obtained:
SMARCA4 = molecular target: T1, SMARCA4 (Homo sapiens, UniProt P51532); assay: SMARCA4 HiBiT degradation assay in HeLa cells; format: cell-based; conditions: 18 hours, highest concentration 10 μM
T1 construct: SMARCA4-HiBiT knock-in Hela monoclonal cell (CS3023226); host or cells: HeLa monoclonal cells with heterozygous HiBiT knock-in at the endogenous SMARCA4 locus
In short: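 HeLa monoclonal cells with HiBiT knocked into SMARCA4 were seeded at 2500 cells/well, dosed with compound and incubated 18 hours at 37° C. HiBiT signal reported remaining SMARCA4 protein, and values came from curve fitting.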

SMARCA2 = molecular target: T2, SMARCA2 (Homo sapiens, UniProt P51531); assay: SMARCA2 HiBiT degradation assay in HeLa cells; format: cell-based; conditions: 18 hours, highest concentration 10 μM
T2 construct: SMARCA2-HiBiT knock-in Hela monoclonal cell (CS302366); host or cells: HeLa monoclonal cells with heterozygous HiBiT knock-in at the endogenous SMARCA2 locus
In short: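 HeLa cells carrying a heterozygous C-terminal HiBiT knock-in on SMARCA2 were seeded at 2500 cells/well. They were treated with 3-fold dilution series, top concentration 10 μM, for 18 h at 37 °C. Remaining SMARCA2-HiBiT was measured by Nano-Glo HiBiT lytic luminescence after 30-60 min at RT, followed by curve fitting.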

T1 sequence (P51532 whole entry): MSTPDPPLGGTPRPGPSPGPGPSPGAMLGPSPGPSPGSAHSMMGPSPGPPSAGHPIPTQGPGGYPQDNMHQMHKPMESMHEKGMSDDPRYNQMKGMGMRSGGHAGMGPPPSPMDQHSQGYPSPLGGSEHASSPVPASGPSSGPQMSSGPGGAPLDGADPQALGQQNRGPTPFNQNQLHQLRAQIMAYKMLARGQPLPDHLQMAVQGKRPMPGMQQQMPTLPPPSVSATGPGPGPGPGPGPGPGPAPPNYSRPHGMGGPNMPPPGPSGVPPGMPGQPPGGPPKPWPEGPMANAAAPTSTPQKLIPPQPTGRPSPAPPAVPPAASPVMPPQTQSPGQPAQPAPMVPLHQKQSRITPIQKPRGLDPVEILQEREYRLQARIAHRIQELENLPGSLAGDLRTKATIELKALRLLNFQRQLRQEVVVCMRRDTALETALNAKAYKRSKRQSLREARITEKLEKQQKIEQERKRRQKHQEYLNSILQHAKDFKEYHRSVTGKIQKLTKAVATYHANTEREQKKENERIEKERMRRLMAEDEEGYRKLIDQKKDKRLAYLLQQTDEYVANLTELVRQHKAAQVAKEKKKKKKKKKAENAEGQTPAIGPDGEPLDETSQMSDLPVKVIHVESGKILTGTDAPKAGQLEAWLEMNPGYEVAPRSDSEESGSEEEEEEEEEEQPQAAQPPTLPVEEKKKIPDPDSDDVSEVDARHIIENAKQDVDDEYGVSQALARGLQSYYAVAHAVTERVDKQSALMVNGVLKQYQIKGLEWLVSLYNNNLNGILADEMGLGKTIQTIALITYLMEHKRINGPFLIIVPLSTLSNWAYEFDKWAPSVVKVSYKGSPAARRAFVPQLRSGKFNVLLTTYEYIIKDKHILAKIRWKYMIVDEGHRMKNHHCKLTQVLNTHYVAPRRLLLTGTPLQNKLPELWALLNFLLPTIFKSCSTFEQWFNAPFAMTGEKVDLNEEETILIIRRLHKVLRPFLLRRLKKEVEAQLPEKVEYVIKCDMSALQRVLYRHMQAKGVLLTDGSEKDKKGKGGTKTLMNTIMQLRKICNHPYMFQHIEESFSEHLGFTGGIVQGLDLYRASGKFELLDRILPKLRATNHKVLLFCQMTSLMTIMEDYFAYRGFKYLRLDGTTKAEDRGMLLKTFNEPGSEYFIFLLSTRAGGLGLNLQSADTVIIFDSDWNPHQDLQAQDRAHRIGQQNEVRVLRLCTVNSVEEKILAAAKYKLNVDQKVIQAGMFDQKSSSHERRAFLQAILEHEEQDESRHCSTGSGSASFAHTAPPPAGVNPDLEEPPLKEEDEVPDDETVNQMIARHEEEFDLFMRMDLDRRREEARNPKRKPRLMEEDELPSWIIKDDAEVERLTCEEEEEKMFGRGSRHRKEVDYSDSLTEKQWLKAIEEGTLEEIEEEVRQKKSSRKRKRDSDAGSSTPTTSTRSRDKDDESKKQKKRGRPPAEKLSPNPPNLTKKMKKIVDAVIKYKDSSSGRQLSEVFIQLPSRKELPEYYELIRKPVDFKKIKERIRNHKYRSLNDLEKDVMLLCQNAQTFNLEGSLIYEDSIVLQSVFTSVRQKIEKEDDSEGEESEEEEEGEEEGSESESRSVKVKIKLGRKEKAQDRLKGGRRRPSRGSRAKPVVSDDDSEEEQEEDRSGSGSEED
T2 sequence (P51531 whole entry): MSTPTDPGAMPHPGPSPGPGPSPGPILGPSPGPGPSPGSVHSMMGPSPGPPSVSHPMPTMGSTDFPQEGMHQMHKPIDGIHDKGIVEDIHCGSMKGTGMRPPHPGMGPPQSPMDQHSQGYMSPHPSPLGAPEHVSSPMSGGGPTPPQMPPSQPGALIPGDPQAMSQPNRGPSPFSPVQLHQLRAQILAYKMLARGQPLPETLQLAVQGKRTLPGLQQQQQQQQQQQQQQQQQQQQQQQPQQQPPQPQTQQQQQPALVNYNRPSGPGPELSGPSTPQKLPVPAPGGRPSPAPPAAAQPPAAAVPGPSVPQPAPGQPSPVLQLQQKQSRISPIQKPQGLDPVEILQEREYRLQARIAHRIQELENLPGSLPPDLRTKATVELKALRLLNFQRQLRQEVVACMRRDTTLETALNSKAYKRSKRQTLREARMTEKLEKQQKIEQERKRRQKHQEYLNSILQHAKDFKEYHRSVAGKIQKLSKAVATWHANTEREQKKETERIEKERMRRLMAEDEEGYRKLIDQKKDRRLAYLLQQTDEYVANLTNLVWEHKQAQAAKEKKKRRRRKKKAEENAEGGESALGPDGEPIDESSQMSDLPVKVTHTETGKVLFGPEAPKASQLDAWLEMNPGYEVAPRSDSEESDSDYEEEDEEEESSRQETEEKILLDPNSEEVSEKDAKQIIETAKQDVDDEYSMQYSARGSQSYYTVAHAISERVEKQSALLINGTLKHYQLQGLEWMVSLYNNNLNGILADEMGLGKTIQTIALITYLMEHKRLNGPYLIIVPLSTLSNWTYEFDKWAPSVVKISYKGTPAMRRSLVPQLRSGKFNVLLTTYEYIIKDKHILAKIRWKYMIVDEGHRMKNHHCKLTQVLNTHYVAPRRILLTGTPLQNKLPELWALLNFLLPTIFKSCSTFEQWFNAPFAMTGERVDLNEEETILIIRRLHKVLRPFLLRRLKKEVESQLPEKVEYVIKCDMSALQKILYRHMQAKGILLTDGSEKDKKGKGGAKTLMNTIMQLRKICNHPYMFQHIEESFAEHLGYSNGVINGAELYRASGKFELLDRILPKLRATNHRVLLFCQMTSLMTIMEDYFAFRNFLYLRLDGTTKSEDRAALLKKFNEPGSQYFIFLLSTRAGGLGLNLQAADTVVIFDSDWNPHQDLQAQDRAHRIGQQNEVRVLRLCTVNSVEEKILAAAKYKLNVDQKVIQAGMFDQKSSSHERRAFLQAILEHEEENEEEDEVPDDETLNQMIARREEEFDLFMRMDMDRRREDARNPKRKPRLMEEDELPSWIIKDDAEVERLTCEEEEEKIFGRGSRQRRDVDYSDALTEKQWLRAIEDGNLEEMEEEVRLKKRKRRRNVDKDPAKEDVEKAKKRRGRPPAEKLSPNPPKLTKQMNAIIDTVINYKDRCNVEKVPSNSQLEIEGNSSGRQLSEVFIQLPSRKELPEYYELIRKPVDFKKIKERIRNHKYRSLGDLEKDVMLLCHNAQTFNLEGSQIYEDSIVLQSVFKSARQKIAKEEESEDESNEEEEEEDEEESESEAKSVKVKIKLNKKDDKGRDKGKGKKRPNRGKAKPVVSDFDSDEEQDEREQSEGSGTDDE

| SMILES | DC50 (SMARCA4) [nM] | Dmax (SMARCA4) [%] | DC50 (SMARCA2) [nM] | Dmax (SMARCA2) [%] |
| --- | --- | --- | --- | --- |
| O=C1CCC(N2Cc3ccc(N4CCN(Cc5ccc(O[C@@H]6C[C@@H]7CNc8nnc(-c9cc(F)cc(F)c9O)cc8N7C6)cc5)CC4)cc3C2=O)C(=O)N1 (stereo partly drawn) [Example 1, 3-(6-(4-(4-(((6aR,8R)-2-(3,5-difluoro-2-hydroxyphenyl)-5,6,6a,7,8,9-hexa-hydropyrrolo[1′,2′:4,5]pyrazino[2,3-c]pyridazin-8-yl)oxy)benzyl)piperazin-1-yl)-1-oxoisoindolin-2-yl)piperidine-2,6-dione] | < 100 | > 75 | < 100 | > 75 |
| CC[C@@]12CNc3nnc(-c4cccc(F)c4O)cc3N1C[C@H](Oc1cnc(CN3CCN(c4ccc5c(c4)CN([C@H]4CCC(=O)NC4=O)C5)CC3)c(F)c1)C2 [Example 72, (S)-3-(6-(4-((5-(((6aR,8R)-6a-Ethyl-2-(3-fluoro-2-hydroxyphenyl)-5,6,6a,7,8,9-exahydropyrrolo[1′,2′:4,5]pyrazino[2,3-c]pyridazin-8-yl)oxy)-3-fluoropyridin-2-yl)methyl)piperazin-1-yl)-1-oxoisoindolin-2-yl)piperidine-2,6-dione] | 100 to 1000 | < 50 | < 100 | > 75 |
| Cc1cc(O[C@@H]2C[C@@H]3CNc4nnc(-c5cc(F)cc(F)c5O)cc4N3C2)c(C)cc1CN1CCN(c2ccc3c(c2)C(=O)N(C2CCC(=O)NC2=O)C3)CC1 (stereo partly drawn) [Example 9, 3-(6-(4-(4-(((6aR,8R)-2-(3,5-difluoro-2-hydroxyphenyl)-5,6,6a,7,8,9-hexahydropyrrolo[1′,2′:4,5]pyrazino[2,3-c]pyridazin-8-yl)oxy)-2,5-dimethylbenzyl)piperazin-1-yl)-1-oxoisoindolin-2-yl)piperidine-2,6-dione] | < 100 | 50 to 75 | < 100 | > 75 |
| Cc1c(CN2CCN(c3ccc4c(c3)C(=O)N(C3CCC(=O)NC3=O)C4)CC2)ccc(O[C@@H]2C[C@@H]3CNc4nnc(-c5cc(F)cc(F)c5O)cc4N3C2)c1C (stereo partly drawn) [Example 18, 3-(6-(4-(4-(((6aR,8R)-2-(3,5-difluoro-2-hydroxyphenyl)-5,6,6a,7,8,9-hexahydropyrrolo[1′,2′:4,5]pyrazino[2,3-c]pyridazin-8-yl)oxy)-2,3-dimethylbenzyl)piperazin-1-yl)-1-oxoisoindolin-2-yl)piperidine-2,6-dione] | < 100 | > 75 | < 100 | > 75 |
| CC[C@]12CNc3nnc(-c4cccc(F)c4O)cc3N1C[C@H](Oc1cnc(CN3CCN(c4ccc5c(c4)CN([C@H]4CCC(=O)NC4=O)C5=O)CC3)c(C(F)(F)F)c1)C2 [Example 73, (S)-3-(5-(4-((5-(((6aS,8R)-6a-ethyl-2-(3-fluoro-2-hydroxyphenyl)-5,6,6a,7,8,9-hexahydropyrrolo[1′,2′:4,5]pyrazino[2,3-c]pyridazin-8-yl)oxy)-3-(trifluoromethyl)pyridin-2-yl)methyl)piperazin-1-yl)-1-oxoisoindolin-2-yl)piperidine-2,6-dione] | < 100 | 50 to 75 | < 100 | > 75 |
| Cc1cc(CN2CCN(c3ccc4c(c3)C(=O)N(C3CCC(=O)NC3=O)C4)CC2)ccc1O[C@@H]1C[C@@H]2CNc3nnc(-c4cc(F)cc(F)c4O)cc3N2C1 (stereo partly drawn) [Example 2, 3-(6-(4-(4-(((6aR,8R)-2-(3,5-difluoro-2-hydroxyphenyl)-5,6,6a,7,8,9-hexahydropyrrolo[1′,2′:4,5]pyrazino[2,3-c]pyridazin-8-yl)oxy)-3-methylbenzyl)piperazin-1-yl)-1-oxoisoindolin-2-yl)piperidine-2,6-dione] | < 100 | > 75 | < 100 | > 75 |
| Cc1cc(O[C@@H]2C[C@@H]3CNc4nnc(-c5cc(F)cc(F)c5O)cc4N3C2)ncc1CN1CCC(c2ccc3c(c2)C(=O)N([C@H]2CCC(=O)NC2=O)C3)CC1 [Example 29, (S)-3-(6-(1-((6-(((6aR,8R)-2-(3,5-difluoro-2-hydroxyphenyl)-5,6,6a,7,8,9-hexahydropyrrolo[1′,2′:4,5]pyrazino[2,3-c]pyridazin-8-yl)oxy)-4-methylpyridin-3-yl)methyl)piperidin-4-yl)-1-oxoisoindolin-2-yl)piperidine-2,6-dione] | < 100 | 50 to 75 | < 100 | > 75 |
| Cc1cc(O[C@@H]2C[C@@H]3CNc4nnc(-c5cc(F)cc(F)c5O)cc4N3C2)ccc1CN1CCN(c2ccc3c(c2)C(=O)N(C2CCC(=O)NC2=O)C3)CC1 (stereo partly drawn) [Example 7, 3-(6-(4-(4-(((6aR,8R)-2-(3,5-difluoro-2-hydroxyphenyl)-5,6,6a,7,8,9-hexahydropyrrolo[1′,2′:4,5]pyrazino[2,3-c]pyridazin-8-yl)oxy)-2-methylbenzyl)piperazin-1-yl)-1-oxoisoindolin-2-yl)piperidine-2,6-dione] | < 100 | 50 to 75 | < 100 | > 75 |
| Cc1nc(O[C@H]2CN3c4cc(-c5cccc(F)c5O)nnc4NC[C@]3(C(F)F)C2)cnc1CN1CCN(c2ccc3c(c2)C(=O)N(C2CCC(=O)NC2=O)C3)CC1 (stereo partly drawn) [Example 51, 3-(6-(4-((5-(((6aS,8R)-6a-(difluoromethyl)-2-(3-fluoro-2-hydroxyphenyl)-5,6,6a,7,8,9-hexahydropyrrolo[1′,2′:4,5]pyrazino[2,3-c]pyridazin-8-yl)oxy)-3-methylpyrazin-2-yl)methyl)piperazin-1-yl)-1-oxoisoindolin-2-yl)piperidine-2,6-dione] | > 1000 | < 50 | < 100 | > 75 |

Further lines, results first:

| DC50 (SMARCA4) [nM] | Dmax (SMARCA4) [%] | DC50 (SMARCA2) [nM] | Dmax (SMARCA2) [%] | SMILES |
| --- | --- | --- | --- | --- |
| > 1000 | < 50 | < 100 | > 75 | Cc1nc(O[C@H]2CN3c4cc(-c5cccc(F)c5O)nnc4NC[C@@]3(C)C2)ncc1CN1CCC(c2ccc3c(c2)C(=O)N([C@H]2CCC(=O)NC2=O)C3)CC1 [Example 77, (S)-3-(6-(1-((2-(((6aR,8R)-2-(3-fluoro-2-hydroxyphenyl)-6a-methyl-5,6,6a,7,8,9-hexahydropyrrolo[1′,2′:4,5]pyrazino[2,3-c]pyridazin-8-yl)oxy)-4-methylpyrimidin-5-yl)methyl)piperidin-4-yl)-1-oxoisoindolin-2-yl)piperidine-2,6-dione] |
| 100 to 1000 | < 50 | < 100 | > 75 | Cc1nc(CN2CCC(c3ccc4c(c3)C(=O)N([C@H]3CCC(=O)NC3=O)C4)CC2)cnc1O[C@H]1CN2c3cc(-c4cccc(F)c4O)nnc3NC[C@@]2(CF)C1 [Example 65, (S)-3-(6-(1-((5-(((6aR,8R)-2-(3-Fluoro-2-hydroxyphenyl)-6a-(fluoromethyl)-5,6,6a,7,8,9-hexahydropyrrolo[1′,2′:4,5]pyrazino[2,3-c]pyridazin-8-yl)oxy)-6-methylpyrazin-2-yl)methyl)piperidin-4-yl)-1-oxoisoindolin-2-yl)piperidine-2,6-dione] |
| < 100 | 50 to 75 | < 100 | > 75 | Cc1cc(CN2CCC(c3ccc4c(c3)C(=O)N([C@H]3CCC(=O)NC3=O)C4)CC2)ncc1O[C@H]1CN2c3cc(-c4cccc(F)c4O)nnc3NC[C@]2(C(F)F)C1 [Example 92, (S)-3-(6-(1-((5-(((6aS,8R)-6a-(difluoromethyl)-2-(3-fluoro-2-hydroxyphenyl)-5,6,6a,7,8,9-hexahydropyrrolo[1′,2′:4,5]pyrazino[2,3-c]pyridazin-8-yl)oxy)-4-methylpyridin-2-yl)methyl)piperidin-4-yl)-1-oxoisoindolin-2-yl)piperidine-2,6-dione] |
| 100 to 1000 | < 50 | < 100 | > 75 | CC[C@]12CNc3nnc(-c4cccc(C)c4O)cc3N1C[C@H](Oc1nc(C)c(CN3CCC(c4ccc5c(c4)C(=O)N([C@H]4CCC(=O)NC4=O)C5)CC3)c(C)n1)C2 [Example 96, (S)-3-(6-(1-((2-(((6aS,8R)-6a-ethyl-2-(2-hydroxy-3-methylphenyl)-5,6,6a,7,8,9-hexahydropyrrolo[1′,2′:4,5]pyrazino[2,3-c]pyridazin-8-yl)oxy)-4,6-dimethylpyrimidin-5-yl)methyl)piperidin-4-yl)-1-oxoisoindolin-2-yl)piperidine-2,6-dione] |
| > 1000 | < 50 | < 100 | > 75 | CC[C@@]12CNc3nnc(-c4cccc(F)c4O)cc3N1C[C@H](Oc1nc(C)c(CN3CCC(c4ccc5c(c4)C(=O)N([C@H]4CCC(=O)NC4=O)C5)CC3)c(C)n1)C2 [Example 102, (S)-3-(6-(1-((2-(((6aR,8R)-6a-ethyl-2-(3-fluoro-2-hydroxyphenyl)-5,6,6a,7,8,9-hexahydropyrrolo[1′,2′:4,5]pyrazino[2,3-c]pyridazin-8-yl)oxy)-4,6-dimethylpyrimidin-5-yl)methyl)piperidin-4-yl)-1-oxoisoindolin-2-yl)piperidine-2,6-dione] |
| < 100 | 50 to 75 | < 100 | > 75 | CC[C@]12CNc3nnc(-c4cccc(F)c4O)cc3N1C[C@H](Oc1cnc(CN3CCC(c4ccc5c(c4)C(=O)N([C@H]4CCC(=O)NC4=O)C5)CC3)cn1)C2 [Example 103, (S)-3-(6-(1-((5-(((6aS,8R)-6a-ethyl-2-(3-fluoro-2-hydroxyphenyl)-5,6,6a,7,8,9-hexahydropyrrolo[1′,2′:4,5]pyrazino[2,3-c]pyridazin-8-yl)oxy)pyrazin-2-yl)methyl)piperidin-4-yl)-1-oxoisoindolin-2-yl)piperidine-2,6-dione] |

Source: US20240165244A1 (Prelude Therapeutics Incorporated, priority 2022, published 2024)
